“And” between values parts separate entries of the source, which are not always exact repeats. Identical values can stand only once.
Tests used:
[1] = for molar entropy: 101.33 kPa, Vacuum adiabatic calorimetry; for Triple point temperature: Adiabatic calorimetry
[2] = molar heat capacity at constant pressure; details: 101.33 kPa, Vacuum adiabatic calorimetry

[Ho+3].[Ho+3].[Se-2].[Se-2].[Se-2] [holmium selenide (Ho2Se3)]
Details | molar entropy, [1] [J/K/mol] | molar heat capacity at constant pressure, [2]
4.75 K, Crystal 3 | – | 4.433 J/K/mol
5 K, Crystal 3 | 1.64 | 5.229 J/K/mol
5.01 K, Crystal 3 | – | 4.889 J/K/mol
5.32 K, Crystal 3 | – | 7.582 J/K/mol
6.03 K, Crystal 2 | 3.189 | 12 J/K/mol and 11.86 J/K/mol
6.03 K, Crystal 3 | 3.189 | 11.86 J/K/mol and 12 J/K/mol
7 K, Crystal 2 | – | 10.5 J/K/mol
7.23 K, Crystal 2 | – | 9.963 J/K/mol
8 K, Crystal 2 | – | 6.9 J/K/mol
8.62 K, Crystal 2 | – | 9.268 J/K/mol
9 K, Crystal 2 | – | 7.3 J/K/mol
10 K, Crystal 2 | 8.227 | 8.4 J/K/mol
10.31 K, Crystal 2 | – | 9.187 J/K/mol
10.68 K, Crystal 2 | – | 9.794 J/K/mol
11.33 K, Crystal 2 | – | 10.14 J/K/mol
12.42 K, Crystal 2 | – | 11.01 J/K/mol
13.07 K, Crystal 2 | – | 11.54 J/K/mol
14.47 K, Crystal 2 | – | 12.75 J/K/mol
15 K, Crystal 2 | 12.67 | 13.14 J/K/mol
16.86 K, Crystal 2 | – | 14.62 J/K/mol
20 K, Crystal 2 | 17.04 | 17.39 J/K/mol
20.03 K, Crystal 2 | – | 17.51 J/K/mol
22.71 K, Crystal 2 | – | 19.72 J/K/mol
25 K, Crystal 2 | 21.4 | 22.07 J/K/mol
25.13 K, Crystal 2 | – | 22.18 J/K/mol
28.04 K, Crystal 2 | – | 25.54 J/K/mol
30 K, Crystal 2 | 25.92 | 27.86 J/K/mol
31.2 K, Crystal 2 | – | 29.55 J/K/mol
34.35 K, Crystal 2 | – | 34.03 J/K/mol
35 K, Crystal 2 | 30.74 | 34.94 J/K/mol
37.49 K, Crystal 2 | – | 38.79 J/K/mol
40 K, Crystal 2 | 35.91 | 42.81 J/K/mol
40.37 K, Crystal 2 | – | 43.37 J/K/mol
43.16 K, Crystal 2 | – | 48 J/K/mol
45 K, Crystal 2 | 41.42 | 50.85 J/K/mol
46.66 K, Crystal 2 | – | 53.47 J/K/mol
50 K, Crystal 2 | 47.18 | 58.65 J/K/mol
51.18 K, Crystal 2 | – | 60.48 J/K/mol
55.76 K, Crystal 2 | – | 66.98 J/K/mol
59.76 K, Crystal 2 | – | 72.46 J/K/mol
60 K, Crystal 2 | 59.16 | –
70 K, Crystal 2 | 71.3 | –
80 K, Crystal 2 | 83.16 | –
90 K, Crystal 2 | 94.54 | –
100 K, Crystal 2 | 105.4 | –
110 K, Crystal 2 | 115.6 | –
120 K, Crystal 2 | 125.2 | –
130 K, Crystal 2 | 134.3 | –
140 K, Crystal 2 | 142.9 | –
150 K, Crystal 2 | 151 | –
160 K, Crystal 2 | 158.6 | –
170 K, Crystal 2 | 165.9 | –
180 K, Crystal 2 | 172.7 | –
190 K, Crystal 2 | 179.3 | –
200 K, Crystal 2 | 185.5 | –
210 K, Crystal 2 | 191.5 | –
220 K, Crystal 2 | 197.3 | –
228.4 K, Crystal 1 | 201.9 | –
228.4 K, Crystal 2 | 201.9 | –
230 K, Crystal 1 | 202.8 | –
240 K, Crystal 1 | 208 | –
250 K, Crystal 1 | 213 | –
260 K, Crystal 1 | 217.9 | –
270 K, Crystal 1 | 222.6 | –
280 K, Crystal 1 | 227.1 | –
290 K, Crystal 1 | 231.4 | –
298.15 K, Crystal 1 | 234.8 | –
300 K, Crystal 1 | 235.6 | –
302 K, Crystal 1 | 236.4 | –

[1]
Details | Triple point temperature [K]
Crystal 2 | 228.4
Crystal 3 | 6.03

— the NIST ThermoML archive (doi:10.1016/j.jct.2017.10.013)
